Read-outs that look alike come from different tables or passages of the source.

The test system of data set [1] is NHBE cells. In words: Microscopy evaluation of treated NHBE cells (RSV study toxicity controls). To be noted: sham infected.
The test system of data set [2] is NHBE cells.
The subject of data set [3] is adenovirus 2, strain Miller. In words: Adenovirus yield in NHBE cells (titers in A-549 cells). Type of data set: cell-based. To be noted: for reduction in virus titers: vs untreated infected controls.
The subject of another data set is Vero 76 cells. In words: Toxicity in Vero 76 cells (crystal violet staining density).
A further data set deals with vaccinia, strain WR. Description: microbe, parasite or virus in culture. Type of data set: cell-based. To be noted: read-out: EC50 (concentration reducing plaque numbers by 50%).
A further data set concerns RV-14 (strain 1059). Description: RV-14 yield in NHBE cells (titers in HeLa-Ohio-1 cells). Type of data set: cell-based, rhinovirus-14.
In data set [4] the test system is NHBE cells. In words: Microscopy evaluation of treated NHBE cells (RV-14 study toxicity controls).
Another data set relates to A-72 cells. In words: Cytotoxicity of ranpirnase in A-72 cells (morphology). To be noted: any of the concentrations tested, 4 days.
The subject of a further data set is VEEV. Type of data set: cell-based.
The subject of data set [5] is influenza A/California/07/2009(H1N1)pdm09 virus. The format is cell-based.
The next data set has as its system tRNA. The settings on record: Lin et al., 1994; cited from earlier work.
In the next data set the test system is RSV A2. Description: RSV yield in NHBE cells (titers in MA-104 cells). The settings on record: all treatments (5 μM, 0.5 μM, 0.1 μM), 48 hours post infection. The format is cell-based.
For data set [6], the system named is NHBE cells. The source holds these as a separate data set.
The subject of the next data set is MERS-CoV virus. The format is cell-based.

Regarding `Nc1ccn([C@H]2CC[C@@H](CO)O2)c(=O)n1` [2′3′-dideoxycytidine, reference compound], the “microscopy evaluation of treated NHBE cells (toxicity)” value (shortened to “microscopy evaluation”) in the data set with NHBE cells [1] and in the data set on NHBE cells [2] was “no toxicological phenomena” in each case. Besides, the “inhibition of virus replication (positive control)” value in data set [3] (NHBE cells, adenovirus MOI 0.1) was “inhibited virus replication as expected”.

Take `Nc1ccn(C[C@@H](CO)OCP(=O)(O)O)c(=O)n1` [cidofovir, reference compound]: the toxicity entry in the data set on Vero 76 cells (dilutions used in the assay) is “Neither ranpirnase nor cidofovir was toxic”. In the data set with vaccinia, strain WR (Orthopoxvirus vaccinia, Vero 76, 48 h), the EC50 turned out to be 10 µM.

Turning to `CCOC(=O)c1ccc(OCCC2CCN(c3ccc(C)nn3)CC2)cc1` [pirodavir, reference compound], in the data set on RV-14 (strain 1059) (0.0032 μg/ml, NHBE cells), the “activity against RV-14” value is “inactive”. Moreover, the “inhibition of virus replication (positive control)” value in the data set on RV-14 (strain 1059) (10 and 3.2 μg/ml) was “inhibited virus replication as expected”. In addition, the “microscopy evaluation” value in the data set on NHBE cells [4] is “no toxicological phenomena”.

ranpirnase: the “reduction in virus titers” value in the data set on RV-14 (strain 1059) (1 μM, 4 days post infection) is approximately 1 log; in [3] (5 μM), approximately 1 log; in data set [3] (10 μM), approximately 1 log. For the same compound, the “drop in virus titer” value was approximately 1.67 log 10 with RV-14 (strain 1059) (5 μM, 4 days post infection); approximately 1.67 log 10 in the data set with RV-14 (strain 1059) (10 μM, 4 days post infection); approximately 1.67 log 10 with RV-14 (strain 1059) (50 μM, 4 days post infection); “approximately three” in data set [3] (50 μM, vs placebo). Also, the toxicity result in the data set with Vero 76 cells (100 μM) is “not toxic”; with Vero 76 cells (dilutions used in the assay), “Neither ranpirnase nor cidofovir was toxic”. Moreover, the “cytotoxic effect (visual morphology)” value in the data set on A-72 cells is on record as “no apparent cytotoxic effect”. Also, the “inhibition of VEEV” value in the data set with VEEV is “robust inhibition”. The “microscopy evaluation” value in the data set with NHBE cells [1], in the data set with NHBE cells [2] and in the data set on NHBE cells [4] was “no toxicological phenomena” in each case. Moreover, the “activity against influenza A/California/07/2009(H1N1)pdm09 virus (virus titer)” value in data set [5] is “statistically significant and dose-dependent”. For the same compound, the “degradation of tRNA” value in the data set with tRNA was “degrades tRNA very effectively”. Also, the “SI (CC50/IC50)” value in the data set on EBOV was 40-77; in the data set with CHIV, “over 18”. In addition, the “inhibition of EBOV” value in the data set with EBOV is “robust inhibition”. Moreover, the EC50 in the data set with vaccinia, strain WR is 3.8 µM. The “reduction in virus titers compared to untreated, infected controls” value in the data set with RSV A2 was 2.3 log. Further, the “virus titers after treatment” value (in the data set on RSV A2; in data set [3] (all treatments except the lowest dose)) was “undetectable levels” each time. For the same compound, the “inhibition of CHIV” value in the data set on CHIV is reported as “robust inhibition”. Besides, in the data set with NHBE cells [6], the “viability of NHBE cells” value is “did not decrease the viability”. Moreover, the “activity against MERS-CoV virus compared with SARS protease inhibitor and Infergen (viral titer)” value with MERS-CoV virus is reported as “far more active”.

Source of the values: US9919034B2, “Methods of treating and prophylactically protecting mammalian patients infected by viruses classified in Baltimore group V” (priority 2014, dated 2018).
